Experimental data taken from ChEMBL document CHEMBL4145573, “Antinociceptive Diterpenoids from the Leaves and Twigs of Rhododendron decorum” (2018).
Active and inactive are the calls of the source. The rule behind the calls is not given here.

Assays:
Mus musculus [1] = assay: Antinociceptive activity in Kunming mouse assessed as inhibition of acetic acid-induced writhes at 10 mg/kg, ip pretreated for 15 mins followed by acetic acid challenge measured for 30 mins; type: functional, organism-based
Mus musculus [2] = assay: Antinociceptive activity in Kunming mouse assessed as inhibition of acetic acid-induced writhes at 0.08 mg/kg, ip pretreated for 15 mins followed by acetic acid challenge measured for 30 mins relative to control; type: functional
Mus musculus [3] = assay: Antinociceptive activity in Kunming mouse assessed as inhibition of acetic acid-induced writhes at 0.8 mg/kg, ip pretreated for 15 mins followed by acetic acid challenge measured for 30 mins relative to control; type: functional

| SMILES | inhibition (Mus musculus [1]) | other results |
| --- | --- | --- |
| C=C1[C@H]2C[C@@H](O)C(C)(C)[C@H](O)[C@@H]2C[C@@]23C[C@@](O)(CC[C@@H]12)[C@](C)(O)C3 | Active | – |
| CC1(C)[C@H]2O[C@H]2[C@H]2[C@](C)(O)[C@@H]3CC[C@]4(O)C[C@@]3(C[C@@H](O)[C@@]21O)C[C@@]4(C)O | – | inhibition in vivo at 0.08 mg/kg (Mus musculus [2]): 78% |
| CN1CC[C@]23c4c5ccc(O)c4O[C@H]2[C@@H](O)C=C[C@H]3[C@H]1C5 [MORPHINE] | – | inhibition in vivo at 0.8 mg/kg (Mus musculus [3]): 86% |
| CC1(C)[C@@H](O)[C@H](O)[C@H]2[C@](C)(O)[C@@H]3CC[C@]4(O)C[C@@]3(C[C@@H](O)[C@@]21O)C[C@@]4(C)O | – | inhibition in vivo at 0.8 mg/kg (Mus musculus [3]): 68% |
| C=C1[C@@H]2[C@@H](O)[C@H](O)C(C)(C)[C@@]2(O)[C@H](O)C[C@@]23C[C@@](O)(CC[C@@H]12)[C@](C)(O)C3 | Active | – |
| C=C1C[C@]23C[C@H]1CC[C@H]2C(=C)[C@@H]1C[C@H](O[C@@H]2O[C@H](CO)[C@@H](O)[C@H](O)[C@H]2O)C(C)(C)[C@@]1(O)[C@H](O)C3 | Active | – |
| C=C1[C@H]2CC[C@]3(O)C[C@@]2(C[C@@H](O)[C@@]2(O)[C@H]1C[C@H](O)C2(C)C)C[C@@]3(C)O | Active | – |
